Laboratory results taken from patent US20070128217A1 (priority 2003, published 2007).

Assays:
[1] = tested on: rabbit serum obtained by immunizing a rabbit with the SARS-CoV strain Frankfurt 1; assay type: binding; set-up: Binding of a rabbit serum to linear peptides / Binding of a rabbit serum to looped peptides / Rabbit serum linear peptides / Rabbit serum looped peptides / Binding of a rabbit serum to linear peptides of protein N of SARS-CoV Urbani (Rabbit serum linear peptides) / Binding of a rabbit serum to looped/cyclic peptides of protein N of SARS-CoV Urbani (Rabbit serum looped peptides): unit not given here
[2] = tested on: antibodies in sera from SARS patients (sera 1a, 1b, 2, 6, 37, 62, London, SARS-yellow, SARS-green); assay type: binding, human; set-up: Binding of serum 6 to linear peptides of protein X1 of SARS-CoV Urbani / Binding of serum 37 to linear peptides of protein X1 of SARS-CoV Urbani / Binding of serum 6 to looped/cyclic peptide (PEPSCAN-ELISA) / Binding of serum 37 to looped/cyclic peptide (PEPSCAN-ELISA) / Binding of serum 37 to looped/cyclic peptides of protein X1 of SARS-CoV Urbani / Binding of serum 6 to linear peptides of protein X2 / Binding of serum 37 to linear peptides of protein X2 / Binding of serum 37 to looped/cyclic peptides of protein X2 of SARS-CoV Urbani / Binding of serum 6 to linear peptides of protein M of SARS-CoV Urbani / Binding of serum 37 to linear peptides of protein M of SARS-CoV Urbani / Binding of serum 6 to looped/cyclic peptides of protein M of SARS-CoV Urbani / Binding of serum 37 to looped/cyclic peptides of protein M of SARS-CoV Urbani / Binding of serum 6 to linear peptides of protein X3 of SARS-CoV Urbani / Binding of serum 37 to linear peptides of protein X3 of SARS-CoV Urbani / Binding of serum 37 to looped/cyclic peptides of protein X3 of SARS-CoV Urbani / Binding of serum 6 to linear peptides of protein X4 of SARS-CoV Urbani / Binding of serum 37 to linear peptides of protein X4 of SARS-CoV Urbani / Binding of serum 37 to looped/cyclic peptides of protein X4 of SARS-CoV Urbani / Binding of serum 6 to linear peptides of protein X5 of SARS-CoV Urbani / Binding of serum 37 to linear peptides of protein X5 of SARS-CoV Urbani / Binding of serum 37 to looped/cyclic peptides of protein X5 of SARS-CoV Urbani / Binding of serum 6 to linear peptides of protein N of SARS-CoV Urbani / Binding of serum 37 to linear peptides of protein N of SARS-CoV Urbani / Binding of serum 6 to linear peptide (PEPSCAN-ELISA) / Binding of serum 1a to looped/cyclic peptides of protein N of SARS-CoV Urbani / Binding of serum 1b to looped/cyclic peptides of protein N of SARS-CoV Urbani / Binding of serum 2 to looped/cyclic peptides of protein N of SARS-CoV Urbani / Binding of serum 6 to looped/cyclic peptides of protein N of SARS-CoV Urbani / Binding of serum 37 to looped/cyclic peptides of protein N of SARS-CoV Urbani / Binding of serum 62 to looped/cyclic peptides of protein N of SARS-CoV Urbani / Binding of serum London to looped/cyclic peptides of protein N of SARS-CoV Urbani / Binding of serum SARS-green to looped/cyclic peptides of protein N of SARS-CoV Urbani: unit not given here
[3] = tested on: control sera (pooled serum of ten healthy LUMC hospital workers; commercial negative donor pooled serum from the Dutch bloodbank); assay type: binding, human; set-up: Binding of Control serum LUMC to linear peptides / Binding of Control serum Blood-bank to linear peptides / Binding of Control serum LUMC to looped peptides / Binding of Control Serum Blood-Bank to Looped peptides / Binding of Control serum LUMC to linear peptides of the protein M of SARS-CoV Urbani / Binding of Control serum Blood-bank to linear peptides of the protein M of SARS-CoV Urbani / Binding of Control serum LUMC to looped peptides of the protein M of SARS-CoV Urbani / Binding of Control Serum Blood-Bank to Looped peptides of the protein M of SARS-CoV Urbani: unit not given here

Question: What does the source list for AAGMEAQFLYLYALI?
Answer: Binding of a rabbit serum to linear peptides [1]: 0.1; Binding of a rabbit serum to looped peptides [1]: 0.6; Binding of serum 1a to linear peptides of protein X1 of SARS-CoV Urbani [2]: 0.7; Binding of serum 1a to looped/cyclic peptide (PEPSCAN-ELISA) [2]: 0.6; Binding of serum 1b to linear peptides of protein X1 of SARS-CoV Urbani [2]: 0.6; Binding of serum 1b to looped/cyclic peptide (PEPSCAN-ELISA) [2]: 0.4; Binding of serum 2 to linear peptides of protein X1 of SARS-CoV Urbani [2]: 0.6; Binding of serum 2 to looped/cyclic peptide (PEPSCAN-ELISA) [2]: 0.5; Binding of serum 6 to linear peptides of protein X1 of SARS-CoV Urbani [2]: 0.5; Binding of serum 6 to looped/cyclic peptide (PEPSCAN-ELISA) [2]: 0.3; Binding of serum 37 to linear peptides of protein X1 of SARS-CoV Urbani [2]: 0.5; Binding of serum 37 to looped/cyclic peptide (PEPSCAN-ELISA) [2]: 0.6; Binding of serum 62 to linear peptides of protein X1 of SARS-CoV Urbani [2]: 0.5; Binding of serum 62 to looped/cyclic peptide (PEPSCAN-ELISA) [2]: 0.6; Binding of serum London to linear peptides of protein X1 of SARS-CoV Urbani [2]: 0.2; Binding of serum London to looped/cyclic peptide (PEPSCAN-ELISA) [2]: 0.2; Binding of serum SARS-green to linear peptides of protein X1 of SARS-CoV Urbani [2]: 0.2; Binding of serum SARS-green to looped/cyclic peptide (PEPSCAN-ELISA) [2]: 0.3; Binding of serum SARS-yellow to linear peptides of protein X1 of SARS-CoV Urbani [2]: 0.3; Binding of serum SARS-yellow to looped/cyclic peptide (PEPSCAN-ELISA) [2]: 0.4; Binding of Control Serum Blood-Bank to Looped peptides [3]: 0.5; Binding of Control serum Blood-bank to linear peptides [3]: 0.5; Binding of Control serum LUMC to linear peptides [3]: 0.9; Binding of Control serum LUMC to looped peptides [3]: 0.7

Question: With LFLAWIMLLQFAYSN as the sequence, how does the “Rabbit serum linear peptides” value [1] read?
Answer: 0.7

Question: And the “Rabbit serum looped peptides” value [1]?
Answer: 0.3

Question: What about the “Binding of serum 1a to linear peptides of protein M of SARS-CoV Urbani” value [2] of the same sequence?
Answer: 0.7

Question: And the “Binding of serum 1a to looped/cyclic peptides of protein M of SARS-CoV Urbani” value [2]?
Answer: 0.8

Question: And the “Binding of serum 1b to linear peptides of protein M of SARS-CoV Urbani” value [2]?
Answer: 0.5

Question: And the “Binding of serum 1b to looped/cyclic peptides of protein M of SARS-CoV Urbani” value [2]?
Answer: 0.6

Question: What about the “Binding of serum 2 to linear peptides of protein M of SARS-CoV Urbani” value [2] of the same sequence?
Answer: 0.3

Question: And the “Binding of serum 2 to looped/cyclic peptides of protein M of SARS-CoV Urbani” value [2]?
Answer: 0.6

Question: What about the “Binding of serum 6 to linear peptides of protein M of SARS-CoV Urbani” value [2] of the same sequence?
Answer: 0.3

Question: And the “Binding of serum 6 to looped/cyclic peptides of protein M of SARS-CoV Urbani” value [2]?
Answer: 0.7

Question: What about the “Binding of serum 37 to linear peptides of protein M of SARS-CoV Urbani” value [2] of the same sequence?
Answer: 0.6

Question: What about the “Binding of serum 37 to looped/cyclic peptides of protein M of SARS-CoV Urbani” value [2] of the same sequence?
Answer: 0.7

Question: And the “Binding of serum 62 to linear peptides of protein M of SARS-CoV Urbani” value [2]?
Answer: 0.7

Question: What about the “Binding of serum 62 to looped/cyclic peptides of protein M of SARS-CoV Urbani” value [2] of the same sequence?
Answer: 0.7

Question: What about the “Binding of serum London to linear peptides of protein M of SARS-CoV Urbani” value [2] of the same sequence?
Answer: 0.2

Question: And the “Binding of serum London to looped/cyclic peptides of protein M of SARS-CoV Urbani” value [2]?
Answer: 0.3

Question: And the “Binding of serum SARS-green to linear peptides of protein M of SARS-CoV Urbani” value [2]?
Answer: 0.2

Question: What about the “Binding of serum SARS-green to looped/cyclic peptides of protein M of SARS-CoV Urbani” value [2] of the same sequence?
Answer: 0.3

Question: And the “Binding of serum SARS-yellow to linear peptides of protein M of SARS-CoV Urbani” value [2]?
Answer: 0.0

Question: And the “Binding of serum SARS-yellow to looped/cyclic peptides of protein M of SARS-CoV Urbani” value [2]?
Answer: 0.6

Question: What about the “Binding of Control Serum Blood-Bank to Looped peptides of the protein M of SARS-CoV Urbani” value [3] of the same sequence?
Answer: 0.7

Question: What about the “Binding of Control serum Blood-bank to linear peptides of the protein M of SARS-CoV Urbani” value [3] of the same sequence?
Answer: 0.5

Question: What about the “Binding of Control serum LUMC to linear peptides of the protein M of SARS-CoV Urbani” value [3] of the same sequence?
Answer: 0.2

Question: What about the “Binding of Control serum LUMC to looped peptides of the protein M of SARS-CoV Urbani” value [3] of the same sequence?
Answer: 0.6
